# Entries after “also recorded” stand apart in the source; their conditions may differ.
# Experiments:
# Type in all cases: cell-based, human
# [1] = test system: γH2AX and cleaved caspase-3 in CT45-expressing cancer cells; test: Western blot of γH2AX and cleaved caspase-3; conditions: day 5
# Experimental: (§1) Cells were treated with 5 μM carboplatin plus 1.5 nM paxlitaxel for 3 days and then incubated an additional 2 days without drug prior to collection on day 5. Both adherent and non-adherent cells were collected in RIPA buffer (25 mM Tris-HCl pH 7.6, 150 mM NaCl, 1% NP-40, 0.5% sodium deoxycholate, 0.1% SDS) supplemented with protease inhibitor cocktail (Thermo Scientific) and phosphatase inhibitor cocktail (Sigma). Lysates were incubated for 30 min on ice before centrifugation (15 min, 14 000 rpm, 4° C.). The quantity of protein was determined by BCA reagent (Pierce). The extracts were analyzed by SDS-PAGE on a 4-20% gradient gel (Bio-Rad).
# as §1, with “indicated drugs” for “5 μM carboplatin plus 1.5 nM paxlitaxel”, “media was changed. On indicated” for “incubated an additional 2 days without drug prior to collection on”, “of collection, both” for “5. Both”, “ice, sonicated and cleared by” for “ice before”
# [2] = test system: DNA damage in CT45-expressing cells; test: Comet assay; conditions: day 5
# Experimental: Cells were treated with carboplatin for 3 days and then incubated an additional 2 days without drug. The comet assay was performed on day 5 as previously described39. Briefly, 2.5e4 cells/condition were resuspended in 70 uL 0.5% low melting point agarose (LMPA) at 37 C and plated on a glass slide precoated with 1% agarose in PBS. Samples were allowed to solidify at 4 C for 20 minutes with a square cover glass. The cover class was gently removed and a second 70 uL layer of 0.5% LMPA was applied and again allowed to solidify. The cover glass was removed and the slides immersed in Comet Lysis solution (2.5M NaCl, 100 mM EDTA, 10 mM Tris, 0.015% Triton X-100, pH 10) for one hour at 4 C and from this point forward protected from light. After lysis, the slides were equilibrated for 20 minutes in Comet Electrophoresis Buffer (0.3N NaOH, 1 mM EDTA, […]) at 4 C, and then run at 25V for 20 minutes. […] At least 100 cells were quantified/sample using the software OpenComet40. […]
# Cells were treated with carboplatin for 3 days and then incubated an additional 2 days without drug. […] At least 100 cells were quantified/sample using the software OpenComet. […]
# [3] = test system: KAP-1 Ser824 phosphorylation; test: KAP-1 Ser824 phosphorylation (western blot, immunofluorescence); conditions: carboplatin 5 μM
# Experimental: as §1, with “indicated drugs” for “5 μM carboplatin plus 1.5 nM paxlitaxel”, “media was changed. On indicated” for “incubated an additional 2 days without drug prior to collection on”, “of collection, both” for “5. Both”, “ice, sonicated and cleared by” for “ice before”
# Cells were treated with 0 or 5 μM carboplatin on glass chamber slides. After 72 hr, media was changed. At designated timepoints, slides were fixed for 10 min at room temperature with 4% paraformaldehyde, cells were washed and permeabilized with PBS/0.1% Triton-X for 15 min and then blocked for 1 hr in blocking buffer (PBS/0.1% Triton-X/0.05% BSA/0.05% goat serum). Cells were washed three times and then were then incubated with primary antibody overnight diluted in blocking buffer at 4° C. Following three washes, cells were incubated with secondary antibody (diluted in blocking buffer) for 1 hr at room temperature and then with Hoechst 33342 for 2 min. Slides were mounted with ProLong Gold Antifade. […] A minimum of 100 cells/sample were analyzed. […]
# OVCAR5-V5-CT45 cells = test: Nuclear size (DAPI); conditions: cells expressing CT45, day 5, carboplatin 5 μM
# Experimental: FIG. 13A-I. CT45 interferes with chromatin dynamics after DNA damage. A, Western blot analysis of OVCAR5 and OVKATE cell line pairs treated with carboplatin (5 μM). Day 3. B, Immunofluorescence staining of KAP1-S824 γH2AX and DAPI in OVCAR5-V5 and OVCAR5-V5-CT45 cell line pair with or without carboplatin treatment (5 μM) at day 3, 5, and 7. Data are means+/−s.e.m. of 5 independent replicates (right panel). Representative cells are shown left. C, CT45 positive 59M cells were collected and processed for a chromatin segregation assay as detailed in the Methods. PP4 complex members, KAP1, and HDAC2 were detected by western blot. D, Volcano plot of chromatin-immunoprecipitation mass spectrometry (ChIP-MS) results for the V5-tag in OVCAR5-V5-CT45 vs. OVCAR5-V5 cell line. Fold enrichment of V5-tagged CT45 over control cell line (V5 tag alone) is plotted against the t-test p-value (−log10). Dashed lines indicate significance thresholds (FDR<0.01, s0=2). […] Most significant pathways are ranked by enrichment false-discovery rate. F, Fold change in nuclear sizes of OVCAR5-V5-CT45 and OVCAR5-V5 cells at day 5 with carboplatin (5 μM) treatment normalized to untreated cells. Representative DAPI images are shown in upper panel. Bar plots represent nuclear sizes from 5 independent experiments. Scale ar=[…]. Data are means+/−s.e.m. […]
smiles,measurement,setting,value
N.N.O=C([O-])C1(C(=O)[O-])CCC1.[Pt+2] [carboplatin],levels of cleaved caspase-3,[1],increased levels
same,levels of γH2AX,[1],increased levels
same,DNA damage (tail moment),[2],higher levels of DNA damage; also recorded: more DNA damage
same,time of peak of phosphorylated KAP-1,[3]; both cell lines,3 days
same,phosphorylation of KAP-1 at Ser824,[3],induced phosphorylation
same,nuclear size,OVCAR5-V5-CT45 cells,larger nuclei

# — patent US12173042B2, “Methods of treating cancers with CT45 targeted therapies” (The University of Chicago, priority 2016, dated 2024)
